The numbers were not newly measured in patent US20050159377A1, “Methods of modulating activity of prokaryotic ribosomes” (SmithKline Beecham Corporation, priority 2000, published 2005), which cites them from elsewhere.

The data set deals with 50S ribosomal subunit.

In the case of `O=C(N[C@H](CO)[C@H](O)c1ccc([N+](=O)[O-])cc1)C(Cl)Cl` [chloramphenicol], the “competition with pleuromutilin for binding” value is given as “weakly compete”.
